According to patent US20130065936A1, “MODULATION OF BIOACTIVE EPOXY-FATTY ACID LEVELS BY PHOSPHODIESTERASE INHIBITORS” (THE REGENTS OF THE UNIVERSITY OF CALIFORNIA, priority 2010, published 2013):
Like-named read-outs stand apart in the source and are kept apart here.

How the values were obtained:
Sprague-Dawley rats [1] = assay: Open field activity; type: in vivo, rat; conditions: 1 h following administration
Experimental: For the measurement of open field activity animals were placed in an acrylic chamber (40×40×20 cm length×width×height) divided into 100 cm^2 (10×10 cm) sections. The number of crossings were recorded when both hind paws crossed into a neighboring cell.

recombinant rat sEH = target: T1, recombinant rat sEH (Rattus norvegicus, UniProt P80299); assay: Potency on recombinant rat sEH, fluorescent substrate; type: biochemical
T1 construct: made in house
T1 sequence (P80299 1-554): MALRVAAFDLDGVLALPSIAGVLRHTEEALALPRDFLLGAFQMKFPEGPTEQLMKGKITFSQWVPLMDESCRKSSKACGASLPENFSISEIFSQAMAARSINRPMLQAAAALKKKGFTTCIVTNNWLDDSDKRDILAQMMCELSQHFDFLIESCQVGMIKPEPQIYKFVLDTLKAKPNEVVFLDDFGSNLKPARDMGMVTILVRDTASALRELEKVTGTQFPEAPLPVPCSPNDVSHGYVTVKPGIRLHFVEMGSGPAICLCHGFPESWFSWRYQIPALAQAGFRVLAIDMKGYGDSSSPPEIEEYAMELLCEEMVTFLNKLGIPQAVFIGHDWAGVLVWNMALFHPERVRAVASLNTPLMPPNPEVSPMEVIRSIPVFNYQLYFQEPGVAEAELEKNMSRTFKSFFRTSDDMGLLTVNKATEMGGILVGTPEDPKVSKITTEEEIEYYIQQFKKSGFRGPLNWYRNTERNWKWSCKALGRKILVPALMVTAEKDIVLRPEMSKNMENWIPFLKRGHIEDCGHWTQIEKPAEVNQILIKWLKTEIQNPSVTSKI

Sprague-Dawley rats [2] = assay: Acute nociceptive responses in healthy rats, Hargreaves thermal withdrawal latency; type: in vivo, rat; conditions: healthy rats
[3] = test system: endogenous oxylipin sEH substrates and products in rat plasma; assay: Oxylipin analysis in rat plasma after sEHI / PDE inhibitor administration (LC-ESI-MS/MS); type: in vivo; conditions: rat plasma 60 min after s.c., TPAU 10 mg/kg, rolipram 1 mg/kg;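 also: plasma from tail vein blood, oxylipins quantified by LC-ESI-MS/MS against deuterated internal standards following solid-phase extraction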
recombinant mouse sEH = target: T2, recombinant mouse sEH (Mus musculus, UniProt P34914); assay: Potency on recombinant mouse sEH, fluorescent substrate; type: biochemical
T2 construct: made in house
T2 sequence (P34914 1-554): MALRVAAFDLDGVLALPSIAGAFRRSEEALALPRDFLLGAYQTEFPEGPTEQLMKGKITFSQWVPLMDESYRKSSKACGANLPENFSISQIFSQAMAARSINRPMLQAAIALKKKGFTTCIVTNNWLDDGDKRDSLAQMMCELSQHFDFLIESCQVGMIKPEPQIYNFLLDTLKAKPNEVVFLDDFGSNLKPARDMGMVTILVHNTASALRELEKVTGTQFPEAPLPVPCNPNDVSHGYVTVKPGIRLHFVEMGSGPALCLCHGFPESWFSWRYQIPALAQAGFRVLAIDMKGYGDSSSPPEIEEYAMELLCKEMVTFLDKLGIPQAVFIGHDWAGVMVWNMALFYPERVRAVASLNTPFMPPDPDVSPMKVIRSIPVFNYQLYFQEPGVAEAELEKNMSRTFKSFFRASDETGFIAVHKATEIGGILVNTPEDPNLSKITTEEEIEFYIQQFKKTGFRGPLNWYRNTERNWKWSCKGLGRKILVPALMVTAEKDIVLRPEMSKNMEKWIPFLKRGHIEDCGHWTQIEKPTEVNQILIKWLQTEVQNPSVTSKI

Q: Which results are given for COc1ccc(C2CNC(=O)C2)cc1OC1CCCC1 (stereo not shown) [Rolipram]?
A: voluntary movement in an open-field chamber (motor depressant effect) (Sprague-Dawley rats [1]): significant and dose-dependent decrease in voluntary movement; inhibitory activity in the sEH assay (recombinant rat sEH; 10 and 100 μM, recombinant rat enzyme): No inhibition was observed; IC50 (recombinant rat sEH; read-out: IC50 on recombinant rat sEH): > 100 µM; IC50 (recombinant rat sEH; recombinant sEH, read-out: IC50 Rat): > 10 µM; thermal withdrawal latency (Sprague-Dawley rats [2]; 2 and 4 h after treatments): devoid of effect on withdrawal latency; thermal withdrawal latency / pain related behavior, change from predrug baseline (Sprague-Dawley rats [2]; s.c., about 1 h after administration): effective in elevating pain thresholds; 8(9)-EpETE [3]: 1.25 nM; 8(9)-EpETrE [3]: 9.63 nM; 8,9-DiHETE [3]: 0.07 nM; 8,9-DiHETrE [3]: 0.45 nM; 9(10)-EpOME [3]: 55.27 nM; 9,10-DiHOME [3]: 24.32 nM; 10(11)-EpDPE [3]: 7.51 nM; 10,11-DiHDPE [3]: 0.33 nM; 11(12)-EpETE [3]: 0.93 nM; 11(12)-EpETrE [3]: 13.15 nM; 11,12-DiHETE [3]: 0.20 nM; 11,12-DiHETrE [3]: 1.67 nM; 12(13)-EpOME [3]: 36.32 nM; 12,13-DiHOME [3]: 42.01 nM; 13(14)-EpDPE [3]: 3.88 nM; 13,14-DiHDPE [3]: 0.37 nM; 14(15)-EpETE [3]: 0.84 nM; 14(15)-EpETrE [3]: 8.52 nM; 14,15-DiHETE [3]: 0.28 nM; 14,15-DiHETrE [3]: 1.74 nM; 16(17)-EpDPE [3]: 3.93 nM; 16,17-DiHDPE [3]: 0.72 nM; 17(18)-EpETE [3]: 1.76 nM; 17,18-DiHETE [3]: 0.77 nM; 19(20)-EpDPE [3]: 7.46 nM; 19,20-DiHDPE [3]: 2.13 nM; total Dihydroxyeicosanoid [3]: 75.1 nM; total Epoxyeicosanoid [3]: 150.4 nM; 12(13)-EpOME ([3]; listed as rolipram): no increase; 12,13-DiHOME ([3]; listed as rolipram): significant elevation; IC50 (recombinant mouse sEH): > 10 µM
